In patent US20240075160A1, “COMBINATION THERAPIES FOR TREATMENT OF CANCER” (MedImmune, LLC, priority 2022, published 2024):

How the values were obtained:
PC9-MART1-GFP cells = assay: T cell mediated cytolysis in co-culture of MART-1 reactive CD8+ T cells and tumor cells (Incucyte, loss of GFP); assay type: cell-based; details: single agent; bispecific 2 nM, ADC 0.05 μg/ml; E:T 4:1 or 5:1; five days after T cell addition
Description: A co-culture assay system was developed which utilized melanoma antigen Melan A (MART-1) reactive T cells and PC9 lung adenocarcinoma cells engineered to express both the MART-1 antigen and Green Fluorescent Protein (GFP). Tumor cell lysis was evaluated utilizing the Sartorius Incucyte Live Cell Analysis System whereby loss of GFP signal intensity was used as a surrogate marker for cell death. Briefly, PC9-MART1-GFP cells were harvested from cell culture flasks using trypsin, washed once with complete RPMI media as defined in Example 1, resuspended and added to each well of 96 well clear bottom, opaque walled optical plates for 24 hours at 37° C. in 5% CO2 as per the manufacturer's instructions. The PD-1-TIGIT (AZD2936), PD-1-TIM3 (AZD7789) or PD-1-CTLA4 (MEDI5752) bispecific antibodies were used at 2 nM concentration. The hRS7(TROP2)-TOP1i ADC was used at 0.05 μg/ml. Treatments were added alone or in combination to wells immediately before rested, antigen-specific CD8+ T cells were added at effector to target (E:T) ratios of 4:1 or 5:1 effector T cells to target tumor cells depending on the donor. Tumor cell death and percent cytolysis were measured five days after T cell addition by image analysis of GFP intensity per well. Data are from experiments with 3 unique donors. Statistical significance for the indicated comparisons is denoted as * p<0.05, ** p<0.01, p<0.001.

human IFN-7 = assay: IFN-γ release in supernatants of co-culture of tumor cells and tumor reactive CD8+ T cells (Mesoscale ELISA); assay type: cell-based; details: MART-1 reactive T cell-PC9 co-culture
Description: Antigen specific CD8+ T-cells secrete IFN-γ upon tumor antigen recognition. To evaluate the amount of IFN-7 detected within the supernatants of co-cultures containing PC9-MART1-GFP tumor cells and tumor reactive CD8+ T cells, separate parallel co-cultures were established in Nunc 96 well plates (Sigma Aldrich) alongside the Incucyte optical plates. For evaluation of IFN-7 release, supernatants were harvested from co-cultures in the Nunc 96 well plates 24, 72 and 144 hours later. IFN-7 was measured using Mesoscale Discovery multi-spot ELISA for human IFN-7 as per the manufacturer's instructions. […] For the MART-1 tumor antigen reactive T cell-PC9 lung adenocarcinoma co-culture, IFN-7 secretion by T cells was retained in the presence of the hRS7(TROP2)-TOP1i ADC alone, AZD2936 and MEDI5752 both alone and in combination with the ADC, FIG. 4C-4D. AZD7789 enhanced IFN-7, which was retained in combination with the hRS7(TROP2)-TOP1i ADC FIG. 4E.

[1] = agent alone, supernatants at 24, 72 and 144 hours
[2] = in combination with the hRS7(TROP2)-TOP1i ADC

Row | Substance | T cell mediated cytolysis of PC9 tumor cells (PC9-MART1-GFP cells) | IFN-7 secretion by T cells (human IFN-7; [1]) | IFN-7 secretion by T cells (human IFN-7; [2])
1 | AZD2936: PD-1-TIGIT bispecific antibody | enhanced | retained | retained
2 | AZD7789: anti-TIM-3/PD-1 bispecific binding protein comprising sequences of monoclonal antibody 013-1 (TIM-3) and LO115 (PD-1) | enhanced | enhanced | retained
3 | MEDI5752: anti-PD-1/CTLA-4 bispecific antibody | enhanced | retained | retained
